Reference: patent publication US7807384B2, “Low density lipoprotein binding proteins and their use in diagnosing and treating atherosclerosis” (Boston Heart Foundation, Inc., priority 1996, dated 2010)

Legend:
[1] = system: ballooned deendothelialized rabbit aorta; experiment: Radiolabeled LDL accumulation in ballooned deendothelialized abdominal aorta after active immunization; format: in vivo; settings: immunized with RIBI adjuvant; corrected for dosage and percent reendothelialization; 24 hr after 125I-LDL
Description: Immunity was induced in male New Zealand White rabbits (Hazelton Research Products, Denver, Pa.) as follows: A mixture of purified human recombinant LBP-2 or BHF-1 peptide (1 ml; 1 mg) and RIBI adjuvant (RIBI ImmunoChem Research, Inc., Hamilton, Mont.) was injected subcutaneously at 2-5 sites along the dorsal thoracic and abdominal regions of the rabbits. Blood was collected by venipuncture on days 1 (preimmune bleeding), 35, 63, and 91. Booster injections were administered on days 28 (500 μg; SC), 56 (250 μg; SC), and 84 (125 μg; SC).
On day 93, the abdominal aorta of immunized and control rabbits was deendothelialized using a Fogarty number 4 embolectomy catheter (Chang et al., Arteriosclerosis and Thrombosis 12:1088-1098 (1992)). Four weeks after ballooning, rabbits received a bolus injection of ^125I-labeled LDL (1 ml; i.v.). […] Blood samples were centrifuged for 30 min at 2000 rpm ([…]) and total activity present in the serum was determined using a Gamma counter. Total TCA precipitable counts were determined by addition of TCA to the serum to a final concentration of 10% followed by incubation for 10 min at 4° C. Serum samples were then centrifuged (2000 rpm; 30 min; […]) and total activity present in the supernate was determined. TCA precipitable counts were calculated by subtraction: total soluble counts minus counts present in the supernate after TCA precipitation. […]

[2] = Body weight and serum lipids of BHF-1-immunized LDLR knockout mice; format: in vivo, mouse
Description: Four week old LDLR knockout mice were ear tagged, randomly assigned to different cages and weighed. Body weights were subsequently determined weekly. Animals were allowed to habituate for one week prior to experimentation. Normal rodent chow was provided ad libitum and animals were maintained in a 12:12 light:dark cycle. Animals were divided into experimental and control groups, as follows: (1) experimental, 16 mice were immunized with the BHF-1.20.L peptide; (2) control, 8 mice were immunized against bovine serum albumin.
Blood samples were analyzed for total cholesterol, HDL cholesterol, and triglyceride concentration, using commercially available total cholesterol and triglycerides assay kits (Sigma, St. Louis Mo.) (ELISA). HDL concentration was determined after Apo B containing lipoproteins were precipitated using heparin/MnCl2.
When fed a normal rodent chow, total serum cholesterol concentration in LDLR knockout mice remains relatively low. A high fat diet, on the other hand, results in an increase in total serum cholesterol concentration in these mice. The animals were thus switched at 16 weeks of age to a modified “Western Type” diet (0.1% cholesterol content) (Harland Teklad, Madison, Wis.) and fed ad libitum. This diet was expected to increase the total serum cholesterol concentration to a range of 600-800 mg/dl, thereby increasing the rate of lesion formation. […]

LBP-1/LDL binding = target: T1, LBP-1/LDL binding (Homo sapiens, UniProt P04114); experiment: ACE assay of LBP-1/LDL binding in the presence of inhibitors; parameters: species or system rabbit; settings: LDL 148 nM in gel; increasing inhibitor (polyglutamic acid 0-0.4 nM; BHF-1 0-10 nM)
T1 construct: the sizes of the recombinant proteins were determined to be 16.2 kDa for LBP-1; LDL was prepared from the plasma of normolipemic donors; 6-histidine tag (N); made in house; host or cells: E. coli DH10B, pPROEX-HT (LBP-1); LDL from human donor plasma
T1 sequence (P04114 28-4563): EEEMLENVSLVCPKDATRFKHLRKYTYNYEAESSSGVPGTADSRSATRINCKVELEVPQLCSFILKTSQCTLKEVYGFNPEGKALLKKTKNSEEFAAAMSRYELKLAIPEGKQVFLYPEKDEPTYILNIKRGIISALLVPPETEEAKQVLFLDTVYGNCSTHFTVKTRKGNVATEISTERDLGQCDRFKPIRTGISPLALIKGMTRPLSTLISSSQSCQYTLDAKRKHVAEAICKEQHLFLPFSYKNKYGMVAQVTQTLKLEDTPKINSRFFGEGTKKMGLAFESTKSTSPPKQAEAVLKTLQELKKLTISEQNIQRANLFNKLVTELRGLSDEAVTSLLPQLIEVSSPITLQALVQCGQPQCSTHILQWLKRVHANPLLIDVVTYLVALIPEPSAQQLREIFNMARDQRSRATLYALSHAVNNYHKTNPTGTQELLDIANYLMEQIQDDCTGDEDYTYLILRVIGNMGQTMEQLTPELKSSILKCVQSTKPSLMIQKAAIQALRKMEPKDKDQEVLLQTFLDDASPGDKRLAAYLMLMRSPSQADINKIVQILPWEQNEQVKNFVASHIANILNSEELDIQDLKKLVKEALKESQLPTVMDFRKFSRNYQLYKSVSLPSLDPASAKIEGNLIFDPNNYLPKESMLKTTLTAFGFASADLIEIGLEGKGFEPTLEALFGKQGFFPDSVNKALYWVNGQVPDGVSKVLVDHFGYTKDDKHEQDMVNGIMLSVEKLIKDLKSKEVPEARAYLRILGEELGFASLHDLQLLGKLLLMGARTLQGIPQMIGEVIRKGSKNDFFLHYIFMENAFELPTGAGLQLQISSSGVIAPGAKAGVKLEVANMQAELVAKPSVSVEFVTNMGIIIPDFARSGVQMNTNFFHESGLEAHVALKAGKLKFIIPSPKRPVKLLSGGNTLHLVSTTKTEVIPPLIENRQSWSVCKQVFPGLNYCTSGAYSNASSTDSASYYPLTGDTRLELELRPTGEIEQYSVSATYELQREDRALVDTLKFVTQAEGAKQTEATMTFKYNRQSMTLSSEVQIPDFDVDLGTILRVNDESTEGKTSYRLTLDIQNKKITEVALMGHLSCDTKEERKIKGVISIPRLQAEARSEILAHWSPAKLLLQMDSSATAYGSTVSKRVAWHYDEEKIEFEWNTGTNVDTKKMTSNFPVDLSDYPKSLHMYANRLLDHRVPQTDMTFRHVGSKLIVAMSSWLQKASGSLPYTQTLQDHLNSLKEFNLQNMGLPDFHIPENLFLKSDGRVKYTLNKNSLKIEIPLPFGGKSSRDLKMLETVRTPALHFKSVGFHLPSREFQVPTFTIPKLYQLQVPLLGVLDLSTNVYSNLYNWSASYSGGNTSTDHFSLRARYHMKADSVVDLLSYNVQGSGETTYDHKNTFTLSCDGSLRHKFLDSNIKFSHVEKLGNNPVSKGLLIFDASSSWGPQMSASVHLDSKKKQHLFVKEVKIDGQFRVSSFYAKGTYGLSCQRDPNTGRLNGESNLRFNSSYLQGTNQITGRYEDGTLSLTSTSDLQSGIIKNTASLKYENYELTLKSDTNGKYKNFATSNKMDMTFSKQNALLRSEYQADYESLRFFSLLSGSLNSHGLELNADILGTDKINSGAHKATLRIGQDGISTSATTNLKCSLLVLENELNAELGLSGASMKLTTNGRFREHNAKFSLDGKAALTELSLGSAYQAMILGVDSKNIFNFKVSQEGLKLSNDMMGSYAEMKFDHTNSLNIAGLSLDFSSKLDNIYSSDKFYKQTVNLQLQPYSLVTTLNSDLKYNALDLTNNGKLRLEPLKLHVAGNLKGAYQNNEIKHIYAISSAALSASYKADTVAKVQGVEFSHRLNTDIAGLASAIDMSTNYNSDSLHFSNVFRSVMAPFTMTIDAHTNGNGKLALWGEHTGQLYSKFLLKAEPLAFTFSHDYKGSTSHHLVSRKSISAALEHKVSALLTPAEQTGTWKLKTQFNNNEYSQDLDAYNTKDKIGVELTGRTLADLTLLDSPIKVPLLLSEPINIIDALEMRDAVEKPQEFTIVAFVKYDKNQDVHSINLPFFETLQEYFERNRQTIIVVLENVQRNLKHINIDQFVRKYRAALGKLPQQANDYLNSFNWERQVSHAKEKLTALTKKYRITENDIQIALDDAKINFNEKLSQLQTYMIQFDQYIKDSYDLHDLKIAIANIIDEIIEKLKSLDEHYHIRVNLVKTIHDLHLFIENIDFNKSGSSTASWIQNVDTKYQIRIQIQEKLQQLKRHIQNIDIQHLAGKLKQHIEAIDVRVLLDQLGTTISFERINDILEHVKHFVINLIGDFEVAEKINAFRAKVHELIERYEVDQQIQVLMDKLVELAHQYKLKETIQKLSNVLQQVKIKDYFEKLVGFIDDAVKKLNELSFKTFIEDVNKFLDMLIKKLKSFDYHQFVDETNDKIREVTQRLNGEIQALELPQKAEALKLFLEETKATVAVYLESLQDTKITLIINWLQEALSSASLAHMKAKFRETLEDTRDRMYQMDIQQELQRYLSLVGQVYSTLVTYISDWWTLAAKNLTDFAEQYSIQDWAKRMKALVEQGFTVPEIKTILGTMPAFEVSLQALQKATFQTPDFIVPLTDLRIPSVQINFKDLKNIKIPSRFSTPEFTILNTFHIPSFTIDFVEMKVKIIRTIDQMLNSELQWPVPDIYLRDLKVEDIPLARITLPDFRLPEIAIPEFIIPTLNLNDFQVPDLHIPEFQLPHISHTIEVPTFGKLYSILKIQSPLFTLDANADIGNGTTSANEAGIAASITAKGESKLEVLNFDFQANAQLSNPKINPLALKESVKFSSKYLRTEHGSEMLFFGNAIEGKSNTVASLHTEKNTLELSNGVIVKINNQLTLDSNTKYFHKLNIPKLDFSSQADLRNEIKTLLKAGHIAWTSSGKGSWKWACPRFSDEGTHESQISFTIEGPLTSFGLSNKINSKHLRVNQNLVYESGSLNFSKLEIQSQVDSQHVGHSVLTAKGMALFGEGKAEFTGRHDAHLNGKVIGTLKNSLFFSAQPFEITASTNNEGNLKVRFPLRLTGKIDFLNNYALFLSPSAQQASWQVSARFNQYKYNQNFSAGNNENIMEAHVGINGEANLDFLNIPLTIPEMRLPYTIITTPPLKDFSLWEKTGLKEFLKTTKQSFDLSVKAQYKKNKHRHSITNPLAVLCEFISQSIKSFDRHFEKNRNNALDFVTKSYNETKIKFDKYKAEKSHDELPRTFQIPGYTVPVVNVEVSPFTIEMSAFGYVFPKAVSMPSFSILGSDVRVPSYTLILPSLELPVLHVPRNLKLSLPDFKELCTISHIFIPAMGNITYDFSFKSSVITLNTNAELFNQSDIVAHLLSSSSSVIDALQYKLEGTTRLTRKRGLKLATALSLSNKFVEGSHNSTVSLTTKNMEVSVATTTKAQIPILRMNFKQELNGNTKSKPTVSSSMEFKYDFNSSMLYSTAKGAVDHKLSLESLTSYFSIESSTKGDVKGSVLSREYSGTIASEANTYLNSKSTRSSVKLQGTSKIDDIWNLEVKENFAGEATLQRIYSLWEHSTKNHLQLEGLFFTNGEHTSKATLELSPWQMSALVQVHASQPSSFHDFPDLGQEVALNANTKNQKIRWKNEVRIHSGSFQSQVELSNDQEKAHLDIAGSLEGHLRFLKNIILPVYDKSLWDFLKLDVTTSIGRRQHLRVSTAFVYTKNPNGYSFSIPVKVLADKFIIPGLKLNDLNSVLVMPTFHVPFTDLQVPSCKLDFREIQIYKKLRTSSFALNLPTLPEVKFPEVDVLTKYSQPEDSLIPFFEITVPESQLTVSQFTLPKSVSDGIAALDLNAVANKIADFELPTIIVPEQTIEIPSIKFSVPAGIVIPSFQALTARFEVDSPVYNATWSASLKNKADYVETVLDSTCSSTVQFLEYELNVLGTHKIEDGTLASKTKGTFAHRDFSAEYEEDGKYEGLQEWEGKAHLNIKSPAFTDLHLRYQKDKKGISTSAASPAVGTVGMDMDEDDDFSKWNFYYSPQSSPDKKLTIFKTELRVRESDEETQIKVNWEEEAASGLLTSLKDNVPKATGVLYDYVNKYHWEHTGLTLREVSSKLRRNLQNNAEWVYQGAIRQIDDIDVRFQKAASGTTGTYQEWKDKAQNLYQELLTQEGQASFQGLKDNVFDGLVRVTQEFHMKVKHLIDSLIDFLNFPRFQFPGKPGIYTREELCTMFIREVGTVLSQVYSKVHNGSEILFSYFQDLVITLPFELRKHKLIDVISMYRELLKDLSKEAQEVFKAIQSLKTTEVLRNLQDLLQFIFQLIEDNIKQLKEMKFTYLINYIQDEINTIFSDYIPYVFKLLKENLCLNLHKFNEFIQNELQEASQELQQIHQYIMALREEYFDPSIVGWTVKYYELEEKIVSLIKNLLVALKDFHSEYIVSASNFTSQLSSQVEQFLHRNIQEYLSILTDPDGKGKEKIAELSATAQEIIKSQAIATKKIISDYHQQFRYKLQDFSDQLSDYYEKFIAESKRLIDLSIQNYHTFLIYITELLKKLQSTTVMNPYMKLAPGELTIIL
Description: (§1) This example illustrates that binding between LBP-1 or LBP-2 and LDL is inhibited by polyglutamic acid or BHF-1. The ability of a third compound to inhibit binding between two proteins previously shown to interact was tested by a modification of the ACE assays described in Example 8. The third compound was added to the top or wells together with the radiolabeled protein.
(§2) Inhibition of LBP-1/LDL or LBP-2/LDL binding by polyglutamic acid (average MW about 7500, corresponding to about […]) was shown by casting a constant amount of LDL (148 nM) in all the rectangular lanes. A constant amount (1 μl) of ^125I-labeled LBP-1 or LBP-2 (0.003 nM-0.016 nM) was loaded in the wells at the top of the gel, together with increasing concentrations of polyglutamic acid (obtained from Sigma) (0-0.4 nM). The gel was electrophoresed at 70 volts for 2 hr, dried and placed on X-ray film, with intensifying screens, overnight at −70° C. before the film was developed to determine the retardation profile of LBP-1 and LBP-2.
Inhibition of LBP-1/LDL binding by BHF-1 was shown by casting a constant amount of LDL (148 nM) in all the rectangular lanes. A constant amount of ^125I-labeled LBP-1 (0.003 nM-0.016 nM) was loaded in the wells at the top of the gel, together with increasing concentrations of BHF-1 (0-10 nM), obtained as described in Example 15. […]

recombinant LBP-2 = experiment: ELISA plate assay, binding of LDL to recombinant LBP-2; settings: ELISA format
Description: (§3) In one example, the ELISA assay was carried out as follows: LDL was diluted in 50 mM Na2HCO3, pH 9.6/0.02% NaN3 and added to the wells of a 96-well plate (ImmunoWare 96-Well Reacti-Bind EIA Polystyrene Plates; Pierce (Rockford, Ill.)) to achieve a final concentration ranging from 0.1 to 1 μg/well. The plates were incubated for 6 hr at room temperature. At the end of the incubation period, the wells were washed 3 times with Tris-buffered saline, pH 7.4 (TBS), and blocked overnight with 200 μl of 1% bovine serum albumin (BSA) in TBS/0.02% NaN3 (Sigma; St. Louis Mo.) at room temperature. The wells were then incubated with 200 μl of LBP protein (5-10 μg/well) in TBS and varying concentrations of the test compound. Plates were incubated for 1 hr at room temperature. The wells were then washed three times with TBS and blocked for 2 hr with 200 μl of 1% BSA in TBS/0.02% NaN3 at room temperature. At the end of the incubation period, the wells were washed 3 times with TBS and a 1:1000 dilution (in TBS/0.05% Tween 20) of the appropriate guinea pig anti-LBP protein polyclonal antibody was added to the wells and incubated for 1 hr at room temperature. […] The absorbance was determined at 405 nm using an ELISA plate reader. The test compound's effectiveness in blocking the binding of LDL to the recombinant protein was assessed by comparing the absorbance values of control and treated groups. […]

[3] = system: LDL receptor (LDLR) knockout mice; experiment: Aortic cholesterol content in BHF-1-immunized LDLR knockout mice; format: in vivo, mouse; settings: 30 weeks of age, modified Western Type diet, P>0.037 as printed
Description: An immunization experiment was performed with the BHF-1 peptide. LDL receptor (LDLR) knockout mice (B6,129S-Ldlr^tmlHer, Jackson Laboratories, Bar Harbor, Me.) were injected with the BHF-1 peptide (see Example 15 for methods of synthesizing the BHF-1 peptide) together with an RIBI adjuvant (RIBI ImmunoChem Research, Inc., Hamilton, Mont.). LDLR knockout mice are hyperlipidemic and thus a model for human atherosclerosis. LDLR knockout mice have high levels of plasma cholesterol and develop naturally-occurring atherosclerotic-like lesions.
Four week old LDLR knockout mice were ear tagged, randomly assigned to different cages and weighed. Body weights were subsequently determined weekly. Animals were allowed to habituate for one week prior to experimentation. […]
Mice in the experimental group received subcutaneous injections (9.99 μg/g body weight; 200 μl final volume) of the BHF-1.20.L peptide daily for 2 weeks, from 5 to 7 weeks of age, prior to the initial injection with the peptide and adjuvant. […] Titer was defined as the maximum dilution of serum that yielded a change in absorbance equivalent to 2× that of control serum (60 min; 37° C.). […]
At 30 weeks of age, the mice were sacrificed and aorta were removed as described in Example 22. Aortic atherosclerosis was measured by the cholesterol extraction method described in Example 22, whereby cholesterol is determined as a unit weight of artery.

recombinant LBP-1 = target: T2, recombinant LBP-1 (Homo sapiens, UniProt P04114); experiment: ELISA plate assay, binding of LDL to recombinant LBP-1; settings: ELISA format
T2 construct: the sizes of the recombinant proteins were determined to be 16.2 kDa for LBP-1; 6-histidine tag (N); made in house; host or cells: E. coli DH10B, pPROEX-HT (LBP-1); LDL from human donor plasma
T2 sequence (P04114 28-4563): as above
Description: as §3

LBP-2/LDL binding = target: T3, LBP-2/LDL binding (Homo sapiens, UniProt P04114); experiment: ACE assay of LBP-2/LDL binding in the presence of inhibitors; parameters: species or system rabbit; settings: LDL 148 nM in gel; polyglutamic acid 0-0.4 nM
T3 construct: LDL was prepared from the plasma of normolipemic donors; 6-histidine tag (N); made in house; host or cells: E. coli DH10B, pPROEX-HT (LBP-2); LDL from human donor plasma
T3 sequence (P04114 28-4563): as above
Description: as §1, §2

Inhibition of binding between LBP-1 and LDL (LBP-1/LDL binding) | Binding of LDL to recombinant LBP-2 (recombinant LBP-2) | Binding of LDL to recombinant LBP-1 (recombinant LBP-1) | Inhibition of binding between LBP-2 and LDL (LBP-2/LDL binding) | Substance | Accumulation of radiolabeled LDL in ballooned abdominal aorta versus nonimmune-ballooned rabbits [1] | Effect of immunization on body weight [2] | Less aortic cholesterol content as compared to control mice [3] [%]
inhibited binding | reduce the binding | reduce the binding | – | val-asp-val-asp-glu-tyr-asp-glu-asn-lys-phe-val-asp-glu-glu-asp-gly-gly-asp-gly (VDVDEYDENKFVDEEDGGDG; listed as Homo sapiens) [BHF-1] | lower accumulation | no effect | 24
inhibited binding | – | – | inhibited binding | polyglutamic acid [reference compound] | – | – | –
